Assay results taken from patent US6156700A, “3-(1,2-Benzisothiazol- and isoxazol-5-yl)-2,4(1H,3H)-pyrimidinedione or thione and 3-(1,2-benzisothiazol- and isoxazol-5-yl)-4(3H)-pyrimidinone or thione herbicidal agents” (American Cyanmid Company, priority 1998, dated 2000).
“And” between values parts separate entries of the source, which are not always exact repeats. Equal entries are not always repeated.

How the values were obtained:
ECHCG = experiment: Postemergence herbicidal evaluation; assay type: in vivo
AMBEL = experiment: Postemergence herbicidal evaluation; assay type: in vivo
IPOHE [1] = experiment: Postemergence herbicidal evaluation; assay type: in vivo; details: 0.0625-0.0640 kg/ha
SETVI [2] = experiment: Preemergence herbicidal evaluation; assay type: in vivo; set-up: scale not given here
ZEAMX = experiment: Preemergence herbicidal evaluation; assay type: in vivo; set-up: scale not given here
GLXMAW [3] = experiment: Preemergence herbicidal evaluation; assay type: in vivo; set-up: scale not given here; details: 0.1250 kg/ha
CASOB = experiment: Preemergence herbicidal evaluation; assay type: in vivo; set-up: scale not given here
CHEAL [4] = experiment: Preemergence herbicidal evaluation; assay type: in vivo; set-up: scale not given here
SETVI [5] = experiment: Postemergence herbicidal evaluation; assay type: in vivo
IPOHE [6] = experiment: Preemergence herbicidal evaluation; assay type: in vivo; details: 0.1250 kg/ha
IPOSS = experiment: Postemergence herbicidal evaluation; assay type: in vivo
ORYSAT = experiment: Postemergence herbicidal evaluation; assay type: in vivo, Oryza sativa
GLXMAW [7] = experiment: Postemergence herbicidal evaluation; assay type: in vivo
ABUTH = experiment: Postemergence herbicidal evaluation; assay type: in vivo
CHEAL [8] = experiment: Postemergence herbicidal evaluation; assay type: in vivo

`Cc1nsc2ccc(-n3c(=O)cc(C(F)(F)F)n(C)c3=O)cc12` [Compound 6, 1-Methyl-3-(3-methyl-1,2-benzisothiazol-5-yl)-6-(trifluoromethyl)-2,4(1H,3H)-pyrimidinedione] was tested, and the herbicidal effect rating (ECHCG; 0.0313-0.0320 kg/ha) was 1.0 and 2.0, the herbicidal effect rating (ECHCG; 0.0625-0.0640 kg/ha) was 3.0 and 1.5 and 2.0 and the herbicidal effect rating (ECHCG; 0.1250 kg/ha) was 7.0. For the same compound, the herbicidal effect rating (ECHCG; 0.2500 kg/ha) was 6.0, the herbicidal effect rating (ECHCG; 0.5000 kg/ha) was 7.0 and the herbicidal effect rating (AMBEL; 0.0313-0.0320 kg/ha) was 9.0 and 6.0 and 8.0. For the same compound, the herbicidal effect rating (AMBEL; 0.0625-0.0640 kg/ha) was 9.0 and 6.5, the herbicidal effect rating (AMBEL; 0.1250 kg/ha) was 9.0 and the herbicidal effect rating (AMBEL; 0.2500 kg/ha) was 9.0. The herbicidal effect rating (AMBEL; 0.5000 kg/ha) was 9.0, the herbicidal effect rating (IPOHE [1]) was 9.0 and 5.0 and the herbicidal effect rating (SETVI [2]; 0.0313-0.0320 kg/ha) was 8.4 and 9.0 and 5.5. For the same compound, the herbicidal effect rating (SETVI [2]; 0.0620-0.0630 kg/ha) was 9.0 and 6.0, the herbicidal effect rating (SETVI [2]; 0.1250 kg/ha) was 9.0 and the herbicidal effect rating (SETVI [2]; 0.2500 kg/ha) was 9.0. The herbicidal effect rating (SETVI [2]; 0.5000 kg/ha) was 9.0, the herbicidal effect rating (ZEAMX; 0.0313-0.0320 kg/ha) was 4.2 and 7.5 and 5.3 and the herbicidal effect rating (ZEAMX; 0.0620-0.0630 kg/ha) was 8.0 and 6.0. It also gave a herbicidal effect rating (ZEAMX; 0.1250 kg/ha) of 6.5, a herbicidal effect rating (ZEAMX; 0.2500 kg/ha) of 9.0 and a herbicidal effect rating (ZEAMX; 0.5000 kg/ha) of 9.0. For the same compound, the herbicidal effect rating (GLXMAW [3]) was 0.0, the herbicidal effect rating (CASOB; 0.0313-0.0320 kg/ha) was 6.0 and 9.0 and 4.5 and the herbicidal effect rating (CASOB; 0.0620-0.0630 kg/ha) was 7.0 and 5.5. It also gave a herbicidal effect rating (CASOB; 0.1250 kg/ha) of 6.5, a herbicidal effect rating (CASOB; 0.2500 kg/ha) of 9.0 and a herbicidal effect rating (CASOB; 0.5000 kg/ha) of 9.0. The herbicidal effect rating (CHEAL [4]; 0.0156-0.0160 kg/ha) was 8.8 and 9.0 and 5.0, the herbicidal effect rating (CHEAL [4]; 0.0313-0.0320 kg/ha) was 9.0 and 8.0 and the herbicidal effect rating (CHEAL [4]; 0.0620-0.0630 kg/ha) was 9.0. The herbicidal effect rating (CHEAL [4]; 0.1250 kg/ha) was 9.0, the herbicidal effect rating (CHEAL [4]; 0.2500 kg/ha) was 9.0 and the herbicidal effect rating (CHEAL [4]; 0.5000 kg/ha) was 9.0. The herbicidal effect rating (SETVI [5]; 0.1250 kg/ha) was 9.0, the herbicidal effect rating (SETVI [5]; 0.2500 kg/ha) was 9.0 and the herbicidal effect rating (SETVI [5]; 0.5000 kg/ha) was 9.0. The herbicidal effect rating (IPOHE [6]) was 3.0, the herbicidal effect rating (IPOSS; 0.0157-0.0160 kg/ha) was 7.5 and 7.0 and the herbicidal effect rating (IPOSS; 0.0313-0.0320 kg/ha) was 9.0 and 8.0. For the same compound, the herbicidal effect rating (IPOSS; 0.0625-0.0640 kg/ha) was 9.0, the herbicidal effect rating (IPOSS; 0.1250 kg/ha) was 9.0 and the herbicidal effect rating (IPOSS; 0.2500 kg/ha) was 9.0. The herbicidal effect rating (IPOSS; 0.5000 kg/ha) was 9.0, the herbicidal effect rating (ORYSAT; 0.0313-0.0320 kg/ha) was 1.5 and 1.0 and the herbicidal effect rating (ORYSAT; 0.0625-0.0640 kg/ha) was 1.0 and 1.8 and 1.5. The herbicidal effect rating (ORYSAT; 0.1250 kg/ha) was 4.5, the herbicidal effect rating (ORYSAT; 0.2500 kg/ha) was 5.0 and the herbicidal effect rating (ORYSAT; 0.5000 kg/ha) was 5.0. The herbicidal effect rating (GLXMAW [7]; 0.0157-0.0160 kg/ha) was 5.5 and 3.0, the herbicidal effect rating (GLXMAW [7]; 0.0313-0.0320 kg/ha) was 5.5 and 3.8 and 7.0 and the herbicidal effect rating (GLXMAW [7]; 0.0625-0.0640 kg/ha) was 6.0 and 4.8 and 7.0. For the same compound, the herbicidal effect rating (GLXMAW [7]; 0.1250 kg/ha) was 7.0, the herbicidal effect rating (GLXMAW [7]; 0.2500 kg/ha) was 7.0 and the herbicidal effect rating (ABUTH; 0.0157-0.0160 kg/ha) was 5.7 and 5.0 and 8.0. It also gave a herbicidal effect rating (ABUTH; 0.0313-0.0320 kg/ha) of 9.0, a herbicidal effect rating (ABUTH; 0.0625-0.0640 kg/ha) of 9.0 and a herbicidal effect rating (ABUTH; 0.1250 kg/ha) of 9.0. The herbicidal effect rating (ABUTH; 0.2500 kg/ha) was 9.0, the herbicidal effect rating (ABUTH; 0.5000 kg/ha) was 9.0 and the herbicidal effect rating (CHEAL [8]; 0.0313-0.0320 kg/ha) was 6.5 and 5.0 and 9.0. For the same compound, the herbicidal effect rating (CHEAL [8]; 0.0625-0.0640 kg/ha) was 9.0 and 7.0, the herbicidal effect rating (CHEAL [8]; 0.1250 kg/ha) was 9.0 and the herbicidal effect rating (CHEAL [8]; 0.2500 kg/ha) was 9.0. The herbicidal effect rating (CHEAL [8]; 0.5000 kg/ha) was 9.0.
`Cn1c(C(F)(F)F)cc(=O)n(-c2ccc3snc(-c4ccccc4)c3c2)c1=O` [Compound 4, 1-Methyl-3-(3-phenyl-1,2-benzisothiazol-5-yl)-6-(trifluoromethyl)-2,4(1H,3H)-pyrimidinedione] was tested, and the herbicidal effect rating (ECHCG; 0.0157-0.0160 kg/ha) was 2.0, the herbicidal effect rating (ECHCG; 0.0313-0.0320 kg/ha) was 5.0 and the herbicidal effect rating (ECHCG; 0.0625-0.0640 kg/ha) was 7.0. The herbicidal effect rating (ECHCG; 0.1250 kg/ha) was 8.0, the herbicidal effect rating (ECHCG; 0.2500 kg/ha) was 8.0 and the herbicidal effect rating (ECHCG; 0.5000 kg/ha) was 9.0. For the same compound, the herbicidal effect rating (AMBEL; 0.0157-0.0160 kg/ha) was 9.0, the herbicidal effect rating (AMBEL; 0.0313-0.0320 kg/ha) was 7.0 and the herbicidal effect rating (AMBEL; 0.0625-0.0640 kg/ha) was 9.0. The herbicidal effect rating (AMBEL; 0.1250 kg/ha) was 9.0, the herbicidal effect rating (AMBEL; 0.2500 kg/ha) was 9.0 and the herbicidal effect rating (AMBEL; 0.5000 kg/ha) was 9.0. The herbicidal effect rating (SETVI [2]; 0.0313-0.0320 kg/ha) was 9.0, the herbicidal effect rating (SETVI [2]; 0.0620-0.0630 kg/ha) was 9.0 and the herbicidal effect rating (SETVI [2]; 0.1250 kg/ha) was 9.0. It also gave a herbicidal effect rating (SETVI [2]; 0.2500 kg/ha) of 9.0, a herbicidal effect rating (SETVI [2]; 0.5000 kg/ha) of 9.0 and a herbicidal effect rating (ZEAMX; 0.0313-0.0320 kg/ha) of 3.0. It also gave a herbicidal effect rating (ZEAMX; 0.0620-0.0630 kg/ha) of 7.0, a herbicidal effect rating (ZEAMX; 0.1250 kg/ha) of 7.0 and a herbicidal effect rating (ZEAMX; 0.2500 kg/ha) of 7.0. It also gave a herbicidal effect rating (ZEAMX; 0.5000 kg/ha) of 7.0, a herbicidal effect rating (CASOB; 0.0313-0.0320 kg/ha) of 7.0 and a herbicidal effect rating (CASOB; 0.0620-0.0630 kg/ha) of 7.0. It also gave a herbicidal effect rating (CASOB; 0.1250 kg/ha) of 6.0, a herbicidal effect rating (CASOB; 0.2500 kg/ha) of 9.0 and a herbicidal effect rating (CASOB; 0.5000 kg/ha) of 9.0. It also gave a herbicidal effect rating (CHEAL [4]; 0.0313-0.0320 kg/ha) of 9.0, a herbicidal effect rating (CHEAL [4]; 0.0620-0.0630 kg/ha) of 9.0 and a herbicidal effect rating (CHEAL [4]; 0.1250 kg/ha) of 9.0. It also gave a herbicidal effect rating (CHEAL [4]; 0.2500 kg/ha) of 9.0, a herbicidal effect rating (CHEAL [4]; 0.5000 kg/ha) of 9.0 and a herbicidal effect rating (SETVI [5]; 0.0157-0.0160 kg/ha) of 8.0. For the same compound, the herbicidal effect rating (SETVI [5]; 0.0313-0.0320 kg/ha) was 9.0, the herbicidal effect rating (SETVI [5]; 0.0625-0.0640 kg/ha) was 9.0 and the herbicidal effect rating (SETVI [5]; 0.1250 kg/ha) was 9.0. It also gave a herbicidal effect rating (SETVI [5]; 0.2500 kg/ha) of 9.0, a herbicidal effect rating (SETVI [5]; 0.5000 kg/ha) of 9.0 and a herbicidal effect rating (IPOSS; 0.0313-0.0320 kg/ha) of 7.0. It also gave a herbicidal effect rating (IPOSS; 0.0625-0.0640 kg/ha) of 9.0, a herbicidal effect rating (IPOSS; 0.1250 kg/ha) of 9.0 and a herbicidal effect rating (IPOSS; 0.2500 kg/ha) of 9.0. For the same compound, the herbicidal effect rating (IPOSS; 0.5000 kg/ha) was 9.0, the herbicidal effect rating (ORYSAT; 0.0157-0.0160 kg/ha) was 2.0 and the herbicidal effect rating (ORYSAT; 0.0313-0.0320 kg/ha) was 2.0. The herbicidal effect rating (ORYSAT; 0.0625-0.0640 kg/ha) was 2.0, the herbicidal effect rating (ORYSAT; 0.1250 kg/ha) was 3.0 and the herbicidal effect rating (ORYSAT; 0.2500 kg/ha) was 3.0. For the same compound, the herbicidal effect rating (ORYSAT; 0.5000 kg/ha) was 4.0, the herbicidal effect rating (ABUTH; 0.0157-0.0160 kg/ha) was 9.0 and the herbicidal effect rating (ABUTH; 0.0313-0.0320 kg/ha) was 9.0. The herbicidal effect rating (ABUTH; 0.0625-0.0640 kg/ha) was 9.0, the herbicidal effect rating (ABUTH; 0.1250 kg/ha) was 9.0 and the herbicidal effect rating (ABUTH; 0.2500 kg/ha) was 9.0. The herbicidal effect rating (ABUTH; 0.5000 kg/ha) was 9.0, the herbicidal effect rating (CHEAL [8]; 0.0157-0.0160 kg/ha) was 9.0 and the herbicidal effect rating (CHEAL [8]; 0.0313-0.0320 kg/ha) was 9.0. It also gave a herbicidal effect rating (CHEAL [8]; 0.0625-0.0640 kg/ha) of 9.0, a herbicidal effect rating (CHEAL [8]; 0.1250 kg/ha) of 9.0 and a herbicidal effect rating (CHEAL [8]; 0.2500 kg/ha) of 9.0. The herbicidal effect rating (CHEAL [8]; 0.5000 kg/ha) was 9.0.
